Tests used:
HCT116 cells = assay: Microarray gene expression of drug-treated cells versus mock-treated cells; assay type: cell-based, human; conditions: for expression response of the 11 hypermethylated guide genes: 300 nM TSA 18 hours or 5 μM DAC 96 hours
Experimental: Cell culture and treatment. HCT116 cells and isogenic genetic knockout derivatives were maintained as previously described (Rhee et al^1). For drug treatments, log phase HCT116 cells were cultured in McCoys 5A media (Invitrogen) containing 10% BCS and 1× penicillin/streptomycin with 5 μM 5-aza-deoxycytidine (DAC) (Sigma; stock solution: 1 mM in PBS) for 96 hours, replacing media and DAC every 24 hours. Cell treatment with 300 nM Trichostatin A (Sigma; stock solution: 1.5 mM dissolved in Ethanol) was performed for 18 hours. Control cells underwent mock treatment in parallel with addition of equal volume of PBS without drugs.
Microarray analysis. Total RNA was harvested from log phase cells using the Qiagen kit according to the manufacturers instructions, including a DNAase step. RNA was quantified using the Nanoprop ND-100 followed by quality assessment with 2100 Bioanalyzer (Agilent Technologies). RNA concentrations for individual samples were greater than 200 ng/ul, with 28 s/18 s ratios greater than 2.2 and RNA integrity numbers of 10. Sample amplification and labeling procedures were carried out using the Low RNA Input Fluorescent Linear Amplification Kit (Agilent Technologies) according to the manufacturers instructions. The labeled cRNA was purified using the RNeasy mini kit (Qiagen) and quantified. RNA spike-in controls (Agilent Technologies) were added to RNA samples before amplification. 0.75 microgram of samples labeled with Cy3 or Cy5 were mixed with control targets (Agilent Technologies), assembled on Oligo Microarray, hybridized, and processed according to the Agilent microarray protocol. Scanning was performed with the Agilent G2565BA microarray scanner under default settings recommended by Agilent Technologies.
Data analysis. All arrays were subject to quality checks recommended by the manufacturer. […] The log ratio of red signal to green signal was calculated after background-subtraction and LoEss normalization as implemented in the limma package from Bioconductor (Smyth et al. 1; Smyth et al. 2). […]

colorectal cell lines = assay: RT-PCR re-expression of Neuralized and FOXL2 in colorectal cancer cell lines; assay type: cell-based, human; conditions: DAC treatment, panel of colorectal cell lines
Experimental: Cell culture and treatment. HCT116 cells and isogenic genetic knockout derivatives were maintained as previously described (Rhee et al^1). For drug treatments, log phase HCT116 cells were cultured in McCoys 5A media (Invitrogen) containing 10% BCS and 1× penicillin/streptomycin with 5 μM 5-aza-deoxycytidine (DAC) (Sigma; stock solution: 1 mM in PBS) for 96 hours, replacing media and DAC every 24 hours. Cell treatment with 300 nM Trichostatin A (Sigma; stock solution: 1.5 mM dissolved in Ethanol) was performed for 18 hours. Control cells underwent mock treatment in parallel with addition of equal volume of PBS without drugs. Methylation and gene expression analysis. RNA was isolated with TRIzolTM Reagent (Invitrogen) according to the manufacturer's instructions. For reverse transcription-PCR (RT-PCR), 1 μg of total RNA was reverse transcribed by using Ready-To-GoTM You-Prime First-Strand Beads (Amersham Biosciences) with addition of random hexamers (0.2 μg per reaction). […] For MSP analysis, DNA was extracted following a standard phenol-chloroform extraction method. Bisulfite modification of genomic DNA was carried out using the EZ DNA methylation KitTM (Zymo Research). […] MSP was performed as previously described (Herman et al.). […]

SMILES: CC(/C=C/C(=O)NO)=C\[C@@H](C)C(=O)c1ccc(N(C)C)cc1 [TSA, Trichostatin A]
- expression response of the 11 hypermethylated guide genes (HCT116 cells): remained within the TSA non-responsive zone

SMILES: Nc1ncn([C@H]2C[C@H](O)[C@@H](CO)O2)c(=O)n1 [DAC, 5-aza-deoxycytidine]
- re-expression of hypermethylated Neuralized and FOXL2 genes (colorectal cell lines): ability to re-express the genes
- expression response of the 11 hypermethylated guide genes (HCT116 cells): four (SFRP1, TFF2, TFF3, and CHFR) demonstrated re-expression responses near the top
- DAC induced expression for genes in the TSA non-response zone (HCT116 cells; 5 μM DAC, 96 hours): > 2 fold
